Test results as given in PMC10731658 (Chemical Research in Toxicology, 2023).
pIC50: −log10 of the molar value. Like-named read-outs stand apart in the source and are kept apart here.

What was measured:
HepG2 cells [1] = conditions: read-out: IC50 (cytotoxicity in HepG2 cells); conventional oximes; cited from earlier work
HepG2 cells [2] = assay: Flow cytometric detection of cell death (Annexin V & Dead Cell Assay); format: cell-based, human; conditions: IC50 concentration
Excerpt: 2. Flow cytometric detection of cell death
The microcapillary flow cytometry (Muse™ Cell Analyzer, Luminex, Austin, TX) was used to determine cell death.
This method is based on detecting externalization of phosphatidylserine on the surface of cells undergoing apoptosis.
The technique allows quantitative analysis of non-apoptotic, early apoptotic, late apoptotic, and necrotic cells. The reagent mixture also contains the membrane non-permeable dye 7-aminoactinomycin D. This component distinguishes necrotic and late apoptotic cells from the live and early apoptotic cells. The measurement of cell death was carried out according to manufacturer instructions after 1, 4, and 24 h incubation with tested oxime reactivators and with oxime-free medium as an untreated control. During the first day of the experiment, cells were seeded into a 24-well plate (TPP) with a density of […]. After the incubation, cells from each well were collected into the polystyrene tube (TPP) and centrifuged for 5 min at 1000 × g at room temperature. The supernatant was discarded. The cell suspensions […]
were prepared in fresh medium DMEM. Afterward 100 μL of cell suspension were mixed with the 100 μL of Muse™ Annexin V & Dead Cell Assay reagent, and the samples were incubated for 20 min at room temperature in the dark.
Per measurement, 5000 cells were analyzed. Each experiment was performed in triplicates and repeated three independent times. The concentration of K048, K074, K075, and K203 oximes and TBHP (positive control) used in […]
After 1 h of incubation (Figure S-1.) with tested oxime reactivators and TBHP as the positive control, the percentage […]
A significant change in the percentage of
The amount of early apoptotic cells
. On the other hand, the percentage of late apoptotic cells was […]
control cells. The count of late apoptotic cells enlarged by 7.74, 4.71 , 4.17, 4.13, and 3.20 %, respectively. The statistical differences were also found in the percentage of necrotic cells in this time interval. The highest increment […]
K048, K074, K075, and K203 groups when compared with control.
K075, and K203 treated groups, respectively, when compared with control. Finally, the percentage of necrotic cells […]
Fig. S-1 The percentage of intact (white column), early (light grey column), late apoptotic (dark grey column), and necrotic HepG2 cells (black column) determined using microcapillary flow cytometry after 1 h, 4 h and 24 h treatment with oxime acetylcholinesterase reactivators or TBHP (positive control). Control represents the cells incubated with an oxime-free culture medium. One-way analysis of variance (ANOVA) followed by Dunnetʼs multiple comparison test was used for statistical analysis by GraphPad Prism 9 software version 9.3.0. Data are expressed as means ± standard deviation (SD) of three independent measurements (n = 3). Significant differences between oxime-treated and untreated control groups (p ≤ 0.05) and marked by asterisk (*).
3. Stability of oximes in DMEM medium at 37 °C over 24 hours
The stability of oximes K048, K074, K075, and K203 in DMEM medium, with concentrations corresponding to their […]
UV, following the chromatographic conditions described by Vanova et al. (2021)13. The results over the tested time […]
Fig. S-2 Data are expressed in percentage as means ± standard deviation (SD) of three independent measurements […]

rat plasma = conditions: in vivo, 23 mg/kg; cited from earlier work
HepG2 cells [3] = assay: Total intracellular MDA by LC-MS/MS; format: cell-based, human; conditions: IC50 concentration
HepG2 cells [4] = assay: Intracellular RONS detection with DHE fluorescent probe; format: cell-based, human; conditions: IC50 concentration; for increase of free radicals/RONS (DHE probe) vs negative control: 1 h incubation
Method: (§1) Two different fluorescent dyes, i.e., 2,7-dichlorodihydrofluorescein diacetate (DCFH-DA, Cayman Chemicals Company, Ann Arbor, MI) and dihydroethidium (DHE, Sigma-Aldrich, St. Louis, MO) were utilized for the determination of intracellular levels of RONS after 1, 4, and 24 h of incubation with tested oxime reactivators or TBHP (positive control). Cells incubated with oxime-free DMEM represented untreated control. After the incubation, the experimental medium was removed and replaced with a solution of DCFH-DA or DHE at concentrations of 20 and 5 μmol/L, respectively. The cells were subsequently incubated at 37 °C in a CO2 incubator for 45 min. Afterward, the fluorescence intensity of each well was measured using a Spark multimode microplate reader at an excitation wavelength of 485 nm for DCFH-DA or 528 nm for the DHE probe and an emission wavelength of 535 or 590 nm, respectively. Each experiment was carried out in triplicate and repeated three independent times.
(§2) The toxicological indices IC50 were calculated from control-subtracted triplicates using nonlinear regression (four parameters) using GraphPad Prism 9 software version 9.3.0 (GraphPad Software Inc., San Diego, CA). One-way analysis of variance (ANOVA) followed by Dunnetʼs multiple comparison test was used for RONS, MDA, NP-SH, and NP-SS-NP statistical analysis by GraphPad Prism 9 software, version 9.3.0. Data are expressed as means ± standard deviation (SD) of three independent measurements (n = 3). Significant differences between oxime-treated and untreated control groups (p ≤ 0.05) were marked by an asterisk (*).

HepG2 cells [5] = conditions: from 15 min after simultaneous incubation with TBHP (IC50 concentration); oximes about 10-fold below IC50; cited from earlier work
HepG2 cells [6] = assay: Intracellular nonprotein thiols (NP-SH) by HPLC-UV; format: cell-based, human; conditions: IC50 concentration
Method: (§3) The culture medium was removed from a 25 cm^2 culture flask on the day of the experiment, and cells were washed twice with 3 mL of phosphate-buffered saline (PBS; GE Healthcare Life Sciences, South Logan, UT). Subsequently, 3 mL of a plain DMEM medium (negative control) and a DMEM medium containing TBHP (positive control) or individual oximes were added to each flask, and cells were incubated for 1, 4, and 24 h. The concentration of individual oxime and TBHP in the DMEM medium corresponded to the IC50 value. After incubation, the experimental medium was removed, and cells were washed with 3 mL of PBS and harvested by scraping. The resulting suspension was centrifuged at 220g and 21 °C for 5 min (Universal 320R centrifuge, Hettich, Tuttlingen, Germany). The supernatant was removed and dried cell pellets were stored at −80 °C. Each experiment was carried out in three independent replicates.
(§4) The cell pellets were thawed at room temperature, resuspended in 500 μL of ultrapure water (Millipore Purification System, Merck, Millipore, Darmstadt, Germany), and sonicated for 2 min (2 s cycle, amplitude 20%) in a Q500 homogenizer (QSONICA Sonicators, Newton). Then, the homogenate was divided into three parts: 250 μL for the determination of malondialdehyde (MDA), 100 μL for each determination of nonprotein thiols (NP-SH) and disulfides (NP-SS-NP), and 10 μL for the Bradford protein assay.
(§5) The HepG2 cell homogenate obtained, as described in Section 2.6, was processed for the determination of intracellular NP-SH and NP-SS-NP, according to Muckova et al.[11] The samples were analyzed using the HPLC system described above equipped with an SPD 20-AV Prominence UV/vis detector. The analysis was carried out on a Phenomenex LUNA C18 column (150 mm × 3 mm, 3 μm, 100 Å) protected with a Security Cartridge (4 mm × 2 mm, Phenomenex, Torrance) at 30 °C and a constant flow rate of 0.330 mL/using the mobile phase consisting of 0.9% aqueous FA (A) and ACN (B) under gradient conditions: 0–1 min 12% B, 1.1–2 min 12–55% B, 2–7 min 55% B, 7.1 min 55% B, and 7.1–10 min 12% B. The detector was set at 326 nm and the sample injection volume was 20 μL.

HepG2 cells [7] = assay: Intracellular RONS detection with DCFH-DA fluorescent probe; format: cell-based, human; conditions: IC50 concentration
Method: as §1, §2

HepG2 cells [8] = assay: Intracellular nonprotein disulfides (NP-SS-NP) by HPLC-UV; format: cell-based, human; conditions: IC50 concentration
Method: as §3, §4, §5

HepG2 cells [9] = assay: Colorimetric MTT cell viability assay, 24 h; conditions: read-out: IC50 (cytotoxicity, MTT assay), 24 h incubation
[10] = Colorimetric MTT cell viability assay, 24 h; conditions: human, HepG2 cells, IC50 (cytotoxicity, MTT assay), 24 h incubation

NC(=O)c1cc[n+](COC[n+]2ccccc2/C=N/O)cc1 [HI-6, asoxime]
pIC50 (HepG2 cells [1]): ~2.52

NC(=O)c1cc[n+](C/C=C/C[n+]2ccc(C=NO)cc2)cc1.[Br-].[Br-] [K203, 4-carbamoyl-1-((2E)-4-(4-((hydroxyimino)methyl)pyridin-1-ium-1-yl)but-2-en-1-yl)pyridin-1-ium dibromide]
decrease in percentage of intact (live) cells vs control (HepG2 cells [2]; 1 h): ~8.43% | increase in early apoptotic cells vs control (HepG2 cells [2]; 1 h): ~1.51% | increase in late apoptotic cells vs control (HepG2 cells [2]; 1 h): 4.13% | decrease in percentage of live cells vs control (HepG2 cells [2]; 4 h): 8.8% | increase in late apoptotic cells vs control (HepG2 cells [2]; 4 h): 4.24% | increase in necrotic cell population vs control (HepG2 cells [2]; 4 h): 1.74% | decrease in percentage of intact cells vs control (HepG2 cells [2]; 24 h): 46.6% | increase in early apoptotic cells vs control (HepG2 cells [2]; 24 h): 13.3% | increase in late apoptotic cells vs control (HepG2 cells [2]; 24 h): 32.9% | low-molecular-weight antioxidants (LMWAs) in plasma (rat plasma): increase | resulting MDA levels (in words) (HepG2 cells [3]; within the 24 h time frame): insignificant | increase of free radicals/RONS (DHE probe) vs negative control (HepG2 cells [4]): 8.5% | increase of RONS (DHE probe) vs negative control (HepG2 cells [4]; 24 h incubation): 22.1% | reduction of ROS production (HepG2 cells [5]): 98% | decrease in NP-SH levels vs untreated control (HepG2 cells [6]; 1 h): 17.4% | decrease in NP-SH levels vs untreated control (HepG2 cells [6]; 24 h): 12.1% | increase of RONS (DCFH-DA probe) vs negative control (HepG2 cells [7]; 1 h incubation): 39.2% | increase of RONS (DCFH-DA probe) vs negative control (HepG2 cells [7]; 4 h incubation): 39.2% | increase of RONS (DCFH-DA probe) vs negative control (HepG2 cells [7]; 24 h incubation): 22.8% | resulting NP-SS-NP levels (in words) (HepG2 cells [8]; within the 24 h time frame): insignificant | pIC50 (HepG2 cells [9]): 2.69

CC(C)(C)OO [TBHP, tert-butyl hydroperoxide, reference compound]
decrease in percentage of intact (live) cells vs control (HepG2 cells [2]; 1 h): ~11.6% | increase in late apoptotic cells vs control (HepG2 cells [2]; 1 h): 7.74% | increase in necrotic cells vs control (HepG2 cells [2]; 1 h): 3.24% | decrease in percentage of live cells vs control (HepG2 cells [2]; 4 h): 14.6% | increase in early apoptotic cells vs control (HepG2 cells [2]; 4 h): 1.02% | increase in late apoptotic cells vs control (HepG2 cells [2]; 4 h): 9.79% | increase in necrotic cell population vs control (HepG2 cells [2]; 4 h): 3.77% | decrease in percentage of intact cells vs control (HepG2 cells [2]; 24 h): 42.7% | increase in early apoptotic cells vs control (HepG2 cells [2]; 24 h): 7.42% | increase in late apoptotic cells vs control (HepG2 cells [2]; 24 h): 31.6% | increase in necrotic cells vs control (HepG2 cells [2]; 24 h): 3.66% | increase of MDA levels vs untreated control (HepG2 cells [3]; 4 h incubation): 36.1% | increase of MDA levels vs untreated control (HepG2 cells [3]; 24 h exposure): 96.6% | increase of free radicals/RONS (DHE probe) vs negative control (HepG2 cells [4]): 30.7% | increase of RONS (DHE probe) vs negative control (HepG2 cells [4]; 4 h incubation): 111% | decrease in NP-SH levels vs untreated control (HepG2 cells [6]; 1 h): 24.6% | decrease in NP-SH levels vs untreated control (HepG2 cells [6]; 4 h): 45.0% | decrease in NP-SH levels vs untreated control (HepG2 cells [6]; 24 h): 53.1% | increase of RONS (DCFH-DA probe) vs negative control (HepG2 cells [7]; 1 h incubation): 16.7% | decrease of RONS (DCFH-DA probe) vs negative control (HepG2 cells [7]; 24 h incubation): 47.6% | increase in NP-SS-NP levels vs untreated control (HepG2 cells [8]; 1 h): 69.6% | increase in NP-SS-NP levels vs untreated control (HepG2 cells [8]; 4 h): 119% | increase in NP-SS-NP levels vs untreated control (HepG2 cells [8]; 24 h): 166% | IC50 at 24 h [10]: 0.13 mM

O/N=C/c1cc[n+](C[n+]2ccc(/C=N/O)cc2)cc1 [MMB-4, methoxime]
pIC50 (HepG2 cells [1]): ~3.00

O/N=C/c1cc[n+](COC[n+]2ccc(/C=N/O)cc2)cc1 [LüH-6, obidoxime]
pIC50 (HepG2 cells [1]): ~2.40

O/N=C/c1cc[n+](CCC[n+]2ccc(/C=N/O)cc2)cc1 [TMB-4, trimedoxime]
pIC50 (HepG2 cells [1]): ~1.66

N[C@@H](CCC(=O)N[C@@H](CS)C(=O)NCC(=O)O)C(=O)O [reduced glutathione, glutathione, reference compound]
reduction of ROS production (HepG2 cells [5]): 87%
